One assay relates to Boophilus microplus. As to the kind of experiment: In vitro effect on Boophilus microplus (Example B9). As to conditions: ranking among test substances. Here is the method:
Example B9: In vitro effect on Boophilus microplus
Four test series each of 10 engorged female adults of Boophilus microplus are stuck to a plastic plate and covered for 1 hour with a wad of cottonwool soaked with an aqueous suspension or emulsion of the test substance. The test is carried out with concentrations of 100, 32, 10, 3.2, 1.0 and 0.32 ppm. The wad of cottonwool is then removed, and the ticks are incubated for 28 days for the eggs to be laid. The effect on Boophilus microplus is assessed according to the following 5 criteria:
1. Number of dead females (immobile with black discoloration) before egg deposition;
2. Number of ticks surviving for several days, but no eggs laid;
3. Number of cases in which eggs are laid, but nothing is hatched;
5. […] The compounds of formula (I) in this test show the effect described under point 4. […] Even at 1 ppm, a 60 to 90% suppression of the hatching rate is observed.
This test is carried out with both the BIARRA and the ULAM strain, and the results in both cases are identical.

Assay [1] has as its system Heliothis virescens. Kind of assay: Ovocidal/larvicidal effect on Heliothis virescens (Example B6). The settings on record: eggs on cotton sprayed with 400 ppm, after 8 days. The format is in vivo. The text has this: Example B6: Ovocidal/larvicidal effect on Heliothis virescens
Eggs of Heliothis virescens laid on cotton are sprayed with an aqueous emulsion containing 400 ppm of active ingredient. After 8 days, the percentage hatching rate of the eggs and the survival rate of the caterpillars are compared with those for untreated controls (% reduction of population)

The test system of assay [2] is Tetranychus urticae. Kind of assay: Ovicidal effect on Tetranychus urticae (Example B7). It is filed as in vivo. The settings on record: bean plants colonized with eggs sprayed with 400 ppm, 6 days at 25° C. The protocol:
Example B7: Ovicidal effect on Tetranychus urticae
Young bean plants are inoculated with females of Tetranychus urticae, which are removed again after 24 hours. The plants colonized with eggs are sprayed with an aqueous emulsion containing 400 ppm of active ingredient. The plants are incubated for 6 days at 25° C. and then evaluated. The percentage reduction of the population (% response) is determined by comparing the number of dead eggs, larvae, and adults on the treated plants with those on the untreated plants.

The subject of another assay is Dermanyssus gallinae. As to the kind of experiment: In vitro effect on Dermanyssus gallinae (Example B10). As to conditions: ranking among test substances. Here is the method:
Example B10: In vitro effect on Dermanyssus gallinae
Ten engorged female mites of the genus Dermanyssus gallinae fixed on a plastic adhesive film are brought into contact with 50 μl of an aqueous suspension or emulsion of the test substance. The test is carried out with concentrations of 32, 10, 3.2, 1.0, 0.32 to 0.0001 ppm. After drying, the film is stuck onto a glass disc. This creates a kind of air bubble around each mite, the lower surface of which is formed by the glass disc and the upper surface by a bulging of the adhesive film. This bubble contains sufficient air for the mite to avoid suffocating. After 5 days, the effect of the test substance is evaluated with the aid of a stereomicroscope by assessing the effect on mortality, egg deposition, egg quality, hatching rate, pupation rate, and development of protonymphs according to the following 4 criteria:
1. if 9 to 10 mites are dead, this indicates a lethal effect;
3. if 2 or more mites survive and produce eggs, but no larvae hatch from these eggs and no protonymphs develop, this indicates a development-inhibiting effect;
4. if 2 or more mites survive and lay the usual number of normal eggs, from which larvae hatch and develop into protonymphs, this indicates no activity.

For assay [3], the system named is Heliothis virescens caterpillars. As to the kind of experiment: Effect on Heliothis virescens caterpillars (Example B4). The format is in vivo. The settings on record: soya plants sprayed with 400 ppm, first stage caterpillars, six days later. The protocol:
Example B4: Effect on Heliothis virescens caterpillars
Young soya plants are sprayed with an aqueous emulsion containing 400 ppm of active ingredient. After drying of the spray deposit, the soya plants are inoculated with 10 first stage caterpillars of Heliothis virescens and transferred to a plastic container. Six days later they are evaluated. The percentage reduction of the population (% response) is determined by comparing the number of dead caterpillars and the extent of feeding damage on the treated plants with those on the untreated plants.

Assay [4] has as its system Diabrotica balteata larvae. Kind of assay: Effect on Diabrotica balteata larvae (Example B2). The format is in vivo. The settings on record: corn seedlings sprayed with 400 ppm, second stage larvae, six days later. The protocol: Example B2: Effect on Diabrotica balteata larvae
Corn seedlings are sprayed with an aqueous emulsion containing 400 ppm of active ingredient. After drying of the spray deposit, the corn seedlings are inoculated with 10 second stage larvae of Diabrotica balteata and transferred to a plastic container. Six days later they are evaluated. The percentage reduction of the population (% response) is determined by comparing the number of dead larvae on the treated plants with those on the untreated plants.

In assay [5] the test system is Plutella xylostella caterpillars. Kind of assay: Effect on Plutella xylostella caterpillars (Example B5). It is filed as in vivo. The settings on record: cabbage plants sprayed with 400 ppm, third stage caterpillars, three days later. The protocol: Example B5: Effect on Plutella xylostella caterpillars
Young cabbage plants are sprayed with an aqueous emulsion containing 400 ppm of active ingredient. After drying of the spray deposit, the cabbage plants are inoculated with 10 third stage caterpillars of Plutella xylostella and transferred to a plastic container. Three days later they are evaluated. The percentage reduction of the population (% response) is determined by comparing the number of dead caterpillars and the extent of feeding damage on the treated plants with those on the untreated plants.

The subject of assay [6] is Panonychus ulmi (resistant to organophosphates und carbaryl). Kind of assay: Effect on Panonychus ulmi (Example B8). It is filed as in vivo. The settings on record: apple seedlings sprayed with 400 ppm, after 14 days. The protocol:
Example B8: Effect on Panonychus ulmi (resistant to organophosphates und carbaryl)
Apple seedlings are inoculated with adult females of Panonychus ulmi. After seven days, the infected plants are sprayed with an aqueous emulsion containing 400 ppm of the test compound until they are dripping wet, and cultivated in the greenhouse. After 14 days, they are evaluated. The percentage reduction of the population (% response) is determined by comparing the number of dead mites on the treated plants with those on the untreated plants.

The test system of assay [7] is Tetranychus urticae. Kind of assay: Effect on Tetranychus urticae (Example B3). The format is in vivo. The settings on record: bean plants, mixed population, sprayed with 400 ppm, 6 days at 25° C. The protocol: Example B3: Effect on Tetranychus urticae
Young bean plants are inoculated with a mixed population of Tetranychus urticae and, one day later, are sprayed with an aqueous emulsion containing 400 ppm of active ingredient. The plants are incubated for 6 days at 25° C. and then evaluated. The percentage reduction of the population (% response) is determined by comparing the number of dead eggs, larvae, and adults on the treated plants with those on the untreated plants. The instantly claimed compounds show good efficacy against Tetranychus urticae in this test.

Assay [8] deals with Heliothis virescens. Kind of assay: Ovicidal effect on Heliothis virescens (Example B1). The format is in vivo. The settings on record: eggs immersed in 400 ppm test solution, after 6 days, vs untreated controls. The protocol: Example B1: Ovicidal effect on Heliothis virescens
Eggs of Heliothis virescens laid on filter paper are immersed for a short time in an acetonic aqueous test solution containing 400 ppm of the active ingredient to be tested. After drying of the test solution, the eggs are incubated in Petri dishes. After 6 days, the percentage hatching rate of the eggs is compared with that for untreated controls (% reduction in hatching rate).

For `Fc1cccc(F)c1C1=NC(c2ccc(-c3ccc(C(F)(F)F)cc3)cc2)CO1` (stereo not shown) [Example H1-5, 2-(2,6-Difluorophenyl)-4-(4′-trifluoromethylbiphenyl-4-yl)-4,5-dihydro-oxazole], the “activity compared with the other test substances” value in the assay on Boophilus microplus and in the assay with Dermanyssus gallinae was “most active test substance” throughout. The “% reduction of population (hatching rate of eggs and survival rate of caterpillars)” value with Heliothis virescens [1] is “more than 80%”. Moreover, the “percentage reduction of the population (% response)” value (with Tetranychus urticae [2]; in assay [3]; in [4]; in assay [5]; in assay [6]; in the assay with Tetranychus urticae [7]) was “more than 80%” in each case. In the assay on Heliothis virescens [8], the “% reduction in hatching rate” value is “more than 80%”.

The record behind these values is US6413912B2, “Azoline derivatives” (Syngenta Crop Protection, Inc., priority 1997, dated 2002).
